“And” between values parts separate entries of the source, which are not always exact repeats. Equal values may be shown once.
What follows are compounds tested on HCV replicon.
Format: cell-based

Structure (SMILES) | IC50
CCOc1ccc2c(C#N)c(-c3ccc(NC(=O)OCC(C)C)cc3)n(CC3CC3)c2c1 [Compound 1151] | < 0.5 µM
CCOc1ccc2c(C#N)c(-c3ccc(NC(=O)OC(C)CC)cc3)n(C3CCC3)c2c1 (centres unmarked) [Compound 1265] | < 0.5 µM
CCn1c(-c2ccc(NC(=O)NC(C)C)cc2)c(C#N)c2cc3c(cc21)OCO3 [Compound 1039] | 0.5 to 2 µM
N#Cc1c(-c2ccc(N3CCCS3(=O)=O)cc2)n(CCF)c2cc(OC(F)(F)F)ccc12 [Compound 905] | < 0.5 µM
CC1CCN(CCOc2ccc3c(C#N)c(-c4ccc(NC(=O)OC(C)C)cc4)n(C4CCC4)c3c2)CC1 [Compound 1272] | < 0.5 µM
CCOc1ccc2c(C#N)c(-c3ccc(NP(=O)(OC)OC)cc3)n(CC)c2c1 [Compound 942] | 0.5 to 2 µM
CCOC(=O)Nc1ccc(-c2c(C#N)c3cc(OC)ccc3n2C2CCC2)cc1 [Compound 1176] | 0.5 to 2 µM
CC(C)NC(=O)Nc1ccc(-c2c(C#N)c3ccc(OCCn4cncn4)cc3n2C2CCC2)cc1 [Compound 1318] | < 0.5 µM
CC(C)OC(=O)Nc1ccc(-c2c(C#N)c3ccc(OCCN4CCCC4)cc3n2C2CCC2)cc1 [Compound 1142] | < 0.5 µM
CCn1c(-c2ccc(N)c(C)c2)c(C#N)c2ccc(OC)cc21 [Compound 927] | 0.5 to 2 µM
CCn1c(-c2ccc(NS(=O)(=O)CCCCl)cc2)c(C#N)c2ccc(OC(F)F)cc21 [Compound 930] | < 0.5 µM
CC#CCOC(=O)Nc1ccc(-c2c(C#N)c3ccc(OCC)cc3n2C2CCC2)cc1 [Compound 976] | 0.5 to 2 µM
CCCCOC(=O)Nc1ccc(-c2c(C#N)c3ccc(OC)cc3n2C2CCC2)cc1 [Compound 1077] | < 0.5 µM
COC(=O)c1ccc2c(C#N)c(-c3ccc(NC(=O)NC(C)C)cc3)n(C3CCC3)c2c1 [Compound 1301] | < 0.5 µM
CCCn1c(-c2ccc(NC(=O)OCC)cc2)c(C#N)c2ccc(OCC)cc21 [Compound 1063] | 0.5 to 2 µM
CC(C)NC(=O)Nc1ccc(-c2c(C#N)c3ccc(OCCNC4CC4)cc3n2C2CCC2)cc1 [Compound 1317] | < 0.5 µM
CCOc1ccc2c(c1)c(C#N)c(-c1ccc(NC(=O)OC(C)C3CC3)cc1)n2C1CCC1 (centres unmarked) [Compound 1295] | < 0.5 µM
N#Cc1c(-c2ccc(NC(=O)NC3CCC3)cc2)n(C2CCC2)c2cc(OCC3CCCO3)ccc12 (centres unmarked) [Compound 1288] | < 0.5 µM
CCN(CC)CCOc1ccc2c(C#N)c(-c3ccc(NC(=O)OC(C)C)cc3)n(C3CCC3)c2c1 [Compound 1278] | < 0.5 µM
CCn1c(-c2ccc(NS(=O)(=O)CC)cc2)c(C#N)c2ccc(C(=O)OC)cc21 [Compound 968] | < 0.5 µM and 0.5 to 2 µM
CCCNC(=O)Nc1ccc(-c2c(C#N)c3ccc(OCC)cc3n2C(C)C)cc1 [Compound 1099] | 0.5 to 2 µM
CCOc1ccc2c(C#N)c(-c3ccc(N4CCCS4(=O)=O)cc3)n(C3CCC3)c2c1 [Compound 980] | > 2 µM
CCn1c(-c2ccc(NC(=O)C3CC3)cc2)c(C#N)c2ccc(OCCN3CCCC3)cc21 [Compound 1054] | 0.5 to 2 µM
COc1ccc2c(c1)c(C#N)c(-c1ccc(NC(=O)NC3CCCC3)cc1)n2C1CCC1 [Compound 1165] | 0.5 to 2 µM
CCn1c(-c2ccc(NS(=O)(=O)C3CC3)c(F)c2)c(C#N)c2ccc(OC)cc21 [Compound 873] | > 2 µM
CCCNC(=O)Nc1ccc(-c2c(C#N)c3cc(OC)ccc3n2CCC)cc1 [Compound 1000] | 0.5 to 2 µM
CCn1c(-c2cccc(N3CCNC3=O)c2)c(C#N)c2ccc(OCCCN3CCOCC3)cc21 [Compound 1068] | 0.5 to 2 µM

Structure (SMILES) | IC50
CCCCNC(=O)Nc1ccc(-c2c(C#N)c3ccc(OCC)cc3n2CCC)cc1 [Compound 1097] | < 0.5 µM
CCn1c(-c2ccc(NC(=O)OC)cc2)c(C#N)c2ccc(OCCCCl)cc21 [Compound 1029] | 0.5 to 2 µM
C=CCNC(=O)Nc1ccc(-c2c(C#N)c3cc(OC)ccc3n2CCC)cc1 [Compound 1001] | 0.5 to 2 µM
CC(OC(=O)Nc1ccc(-c2c(C#N)c3ccc(OC(F)F)cc3n2CC2CC2)cc1)C1CC1 (centres unmarked) [Compound 1267] | 0.5 to 2 µM
CCCCNC(=O)Nc1ccc(-c2c(C#N)c3ccc(OC(F)(F)F)cc3n2CC)cc1 [Compound 894] | 0.5 to 2 µM
CCOC(=O)Nc1ccc(-c2c(C#N)c3ccc(OCC)cc3n2C2CCCC2)cc1 [Compound 1127] | < 0.5 µM
CC(C)OC(=O)Nc1ccc(-c2c(C#N)c3ccc(OCCN(C)C)cc3n2C2CCC2)cc1 [Compound 1269] | < 0.5 µM
CCCOC(=O)Nc1ccc(-c2c(C#N)c3ccc(OCCCCl)cc3n2CC)cc1 [Compound 1030] | < 0.5 µM
COCCn1c(-c2ccc(N3CCCS3(=O)=O)cc2)c(C#N)c2ccc(OC(F)(F)F)cc21 [Compound 906] | 0.5 to 2 µM
CCn1c(-c2ccc(NS(=O)(=O)CC)c(C)c2)c(C#N)c2ccc(OC)cc21 [Compound 960] | 0.5 to 2 µM
CCOc1ccc2c(C#N)c(-c3ccc(NC(=O)OCCF)cc3)n(CC(C)C)c2c1 [Compound 1059] | 0.5 to 2 µM
CCn1c(-c2ccc(NC(=O)OCCF)cc2)c(C#N)c2ccc(OCCF)cc21 [Compound 945] | 0.5 to 2 µM
CCCOc1ccc2c(C#N)c(-c3ccc(NC(=O)NC(C)CC)cc3)n(C(C)C)c2c1 (centres unmarked) [Compound 1324] | < 0.5 µM
CCCCNC(=O)Nc1ccc(-c2c(C#N)c3ccc(OCC)cc3n2CCCC)cc1 [Compound 1018] | < 0.5 µM
CCOC(=O)Nc1ccc(-c2c(C#N)c3ccc(OC)cc3n2CC)cc1C [Compound 964] | 0.5 to 2 µM
CCCOc1ccc2c(C#N)c(-c3ccc(NC(=O)OC(C)C4CC4)cc3)n(C(C)C)c2c1 (centres unmarked) [Compound 1244] | < 0.5 µM
CC(C)OC(=O)Nc1ccc(-c2c(C#N)c3ccc(OCc4cccnc4)cc3n2C2CCC2)cc1 [Compound 1218] | < 0.5 µM
CCn1c(-c2ccc(NS(=O)(=O)C3CC3)cc2)c(C#N)c2cc3c(cc21)OCO3 [Compound 1038] | 0.5 to 2 µM
CCn1c(-c2ccc(NC(=O)C3CC3)cc2)c(C#N)c2ccc(OCCn3cncn3)cc21 [Compound 1093] | 0.5 to 2 µM
CCOc1ccc2c(c1)c(C#N)c(-c1ccc(NC(=O)OC(C)C)cc1)n2C1CCC1 [Compound 1195] | < 0.5 µM
CCCS(=O)(=O)Nc1ccc(-c2c(C#N)c3ccc(OCC)cc3n2C2CCCC2)cc1 [Compound 1140] | 0.5 to 2 µM
CCNC(=O)Nc1ccc(-c2c(C#N)c3ccc(OCC)cc3n2CC2CC2)cc1 [Compound 1156] | < 0.5 µM
COCn1c(-c2ccc(N3CCCS3(=O)=O)cc2)c(C#N)c2ccc(OC)cc21 [Compound 990] | 0.5 to 2 µM
CCCOC(=O)Nc1cccc(-c2c(C#N)c3ccc(OCCCN4CCOCC4)cc3n2CC)c1 [Compound 1034] | < 0.5 µM
CCNC(=O)Nc1ccc(-c2c(C#N)c3ccc(OC)cc3n2CC)cc1F [Compound 909] | 0.5 to 2 µM
CCOc1ccc2c(C#N)c(-c3ccc(N)cc3)n(C3CC3)c2c1 [Compound 1245] | 0.5 to 2 µM
CCCOc1ccc2c(C#N)c(-c3ccc(NC(=O)OCC)cc3)n(C(C)C)c2c1 [Compound 1202] | < 0.5 µM

Structure (SMILES) | IC50
CCn1c(-c2ccc(NC(=O)C(C)(C)C)cc2)c(C#N)c2ccc(OC(F)(F)F)cc21 [Compound 915] | 0.5 to 2 µM
CCOc1ccc2c(C#N)c(-c3ccc(NC(=O)OC(C)C)cc3)n(C3CC3)c2c1 [Compound 1236] | < 0.5 µM
CC(C)NC(=O)Nc1ccc(-c2c(C#N)c3ccc(OCCN4CCOCC4)cc3n2C2CCC2)cc1 [Compound 1315] | 0.5 to 2 µM
CCCCNC(=O)Nc1ccc(-c2c(C#N)c3ccc(OCC)cc3n2CC)cc1 [Compound 951] | 0.5 to 2 µM
CCCS(=O)(=O)Nc1ccc(-c2c(C#N)c3cc(OC)ccc3n2C2CCC2)cc1 [Compound 1181] | 0.5 to 2 µM
CCn1c(-c2ccc(N3CCCS3(=O)=O)cc2)c(C#N)c2ccc(OC(F)F)cc21 [Compound 1026] | 0.5 to 2 µM and < 0.5 µM
N#Cc1c(-c2ccc(NC(=O)OC3CCCC3)cc2)n(C2CCC2)c2cc(OCc3cccnc3)ccc12 [Compound 1219] | < 0.5 µM
CCN(c1ccc(-c2c(C#N)c3ccc(C(F)(F)F)cc3n2CC)cc1)S(=O)(=O)CC [Compound 1006] | < 0.5 µM and 0.5 to 2 µM
COc1ccc2c(c1)c(C#N)c(-c1ccc(NC(=O)NC(C)C)cc1)n2C1CCC1 [Compound 1163] | 0.5 to 2 µM
CCCNC(=O)Nc1ccc(-c2c(C#N)c3cc(OC)ccc3n2C2CCC2)cc1 [Compound 1162] | 0.5 to 2 µM
CCCCn1c(-c2cccc(NC(=O)NCCc3ccccc3)c2)c(C#N)c2ccc(OCC)cc21 [Compound 1024] | < 0.5 µM
CCn1c(-c2ccc(N3CCCS3(=O)=O)cc2)c(C#N)c2ccc(N)cc21 [Compound 1050] | 0.5 to 2 µM
CCOc1ccc2c(C#N)c(-c3ccc(NC(=O)Cc4ccccc4)cc3)n(CC)c2c1 [Compound 900] | 0.5 to 2 µM
CCCOC(=O)Nc1ccc(-c2c(C#N)c3ccc(OCC)cc3n2C2CCCC2)cc1 [Compound 1128] | < 0.5 µM
CCNC(=O)Nc1cccc(-c2c(C#N)c3ccc(OCCCN4CCCC4)cc3n2CC)c1 [Compound 1045] | < 0.5 µM
CC1(COC(=O)Nc2ccc(-c3c(C#N)c4ccc(OCC5CCCO5)cc4n3C3CCC3)cc2)CC1 (centres unmarked) [Compound 1284] | < 0.5 µM
CCCNC(=O)Nc1ccc(-c2c(C#N)c3ccc(OCC)cc3n2C2CCCC2)cc1 [Compound 1144] | < 0.5 µM
CCCNC(=O)Nc1ccc(-c2c(C#N)c3ccc(OCC)cc3n2CC(C)C)cc1 [Compound 1061] | 0.5 to 2 µM
CCn1c(-c2ccc(NS(=O)(=O)C3CC3)cc2)c(C#N)c2ccc(OCCCN3CCOCC3)cc21 [Compound 1117] | 0.5 to 2 µM
CCn1c(-c2ccc(NC(=O)NC(C)C)cc2)c(C#N)c2ccc(OC(F)F)cc21 [Compound 1137] | 0.5 to 2 µM
CCNc1ccc(-c2c(C#N)c3ccc(OCC)cc3n2C2CC2)cc1 [Compound 1311] | < 0.5 µM
CCOc1ccc2c(C#N)c(-c3ccc(NC(=O)OC(C)C(C)C)cc3)n(C3CCC3)c2c1 (centres unmarked) [Compound 1290] | < 0.5 µM
C=CCOC(=O)Nc1ccc(-c2c(C#N)c3cc(OC)c(OC)cc3n2CC)cc1 [Compound 1111] | 0.5 to 2 µM
CCCOC(=O)Nc1ccc(-c2c(C#N)c3ccc(OC)cc3n2CC)cc1C [Compound 965] | 0.5 to 2 µM
CCn1c(-c2ccc(NC(=O)N3CCOCC3)cc2)c(C#N)c2ccc(OC)cc21 [Compound 1087] | 0.5 to 2 µM
COc1ccc2c(C#N)c(-c3ccc(NC(=O)NC4CCCC4)cc3)n(C3CCC3)c2c1 [Compound 1106] | < 0.5 µM

From patent US7973069B2 (PTC Therapeutics, Inc., priority 2004, dated 2011)
